Laboratory results: article PMC11672637, “7-O-Carboxylic Acid-Substituted 3-O-Alkyl Difluoroquercetin; An Aztreonam-Potentiating Agent Against Carbapenemase-Producing Pseudomonas aeruginosa Through Simultaneous Inhibition of Metallo-β-Lactamase and Efflux Pump” (Antibiotics, 2024)
Converted amounts (≈) assume the structure as drawn. Where two headings read alike, the source gives them in different places.

Experiments:
Format in all cases: cell-based, P. aeruginosa
All CPPA (n = 26) = assay: MIC distribution over clinical isolates; settings: for inhibition at 1 µg/mL / inhibition at 2 µg/mL / inhibition at 4 µg/mL / inhibition at 8 µg/mL / inhibition at 16 µg/mL / inhibition at 32 µg/mL / inhibition at 64 µg/mL / MIC50 / MIC90: Pseudomonas aeruginosa; for inhibition at 1 µg/mL: read-out: Cumulative % inhibition by ATM, 5 at 1 mg/L; for inhibition at 2 µg/mL: read-out: Cumulative % inhibition by ATM, 5 at 2 mg/L; for inhibition at 4 µg/mL: read-out: Cumulative % inhibition by ATM, 5 at 4 mg/L; for inhibition at 8 µg/mL: read-out: Cumulative % inhibition by ATM, 5 at 8 mg/L; for inhibition at 16 µg/mL: read-out: Cumulative % inhibition by ATM, 5 at 16 mg/L; for inhibition at 32 µg/mL: read-out: Cumulative % inhibition by ATM, 5 at 32 mg/L; for inhibition at 64 µg/mL: read-out: Cumulative % inhibition by ATM, 5 at 64 mg/L
PA-029, blaIMP = assay: MIC / checkerboard with ATM; settings: for MIC: Pseudomonas aeruginosa, read-out: MIC of ATM with 5, PA-029
PA-031, blaNDM = assay: MIC / checkerboard with ATM; settings: PA-031

SMILES: CC(C)(C)CCOc1c(-c2ccc(F)c(F)c2)oc2cc(OCC(=O)O)cc(O)c2c1=O [Compound 5, 2-((2-(3,4-Difluorophenyl)-3-(3,3-dimethylbutoxy)-5-hydroxy-4-oxo-4H-chromen-7-yl)oxy)acetic Acid]
- Clinical strains sensitized to ATM (MIC ≤ 8 mg/L) by combination with 5 (All CPPA (n = 26)): 25 out of 26
- CPPA isolates in which ATM/5 combination showed synergistic effects (All CPPA (n = 26); 22 out of 26 isolates): 85%
- inhibition at 1 µg/mL (All CPPA (n = 26); ATM 0.5 mg/L): 0%
- inhibition at 1 µg/mL (All CPPA (n = 26); ATM 1 mg/L): 4%
- inhibition at 1 µg/mL (All CPPA (n = 26); ATM 2 mg/L): 19%
- inhibition at 1 µg/mL (All CPPA (n = 26); ATM 4 mg/L): 35%
- inhibition at 1 µg/mL (All CPPA (n = 26); ATM 8 mg/L): 46%
- inhibition at 1 µg/mL (All CPPA (n = 26); ATM 16 mg/L): 81%
- inhibition at 1 µg/mL (All CPPA (n = 26); ATM 32 mg/L): 100%
- inhibition at 1 µg/mL (All CPPA (n = 26); ATM 64 mg/L): 100%
- inhibition at 2 µg/mL (All CPPA (n = 26); ATM 0.5 mg/L): 4%
- inhibition at 2 µg/mL (All CPPA (n = 26); ATM 1 mg/L): 4%
- inhibition at 2 µg/mL (All CPPA (n = 26); ATM 2 mg/L): 23%
- inhibition at 2 µg/mL (All CPPA (n = 26); ATM 4 mg/L): 38%
- inhibition at 2 µg/mL (All CPPA (n = 26); ATM 8 mg/L): 46%
- inhibition at 2 µg/mL (All CPPA (n = 26); ATM 16 mg/L): 92%
- inhibition at 2 µg/mL (All CPPA (n = 26); ATM 32 mg/L): 100%
- inhibition at 2 µg/mL (All CPPA (n = 26); ATM 64 mg/L): 100%
- inhibition at 4 µg/mL (All CPPA (n = 26); ATM 0.5 mg/L): 4%
- inhibition at 4 µg/mL (All CPPA (n = 26); ATM 1 mg/L): 8%
- inhibition at 4 µg/mL (All CPPA (n = 26); ATM 2 mg/L): 31%
- inhibition at 4 µg/mL (All CPPA (n = 26); ATM 4 mg/L): 46%
- inhibition at 4 µg/mL (All CPPA (n = 26); ATM 8 mg/L): 81%
- inhibition at 4 µg/mL (All CPPA (n = 26); ATM 16 mg/L): 100%
- inhibition at 4 µg/mL (All CPPA (n = 26); ATM 32 mg/L): 100%
- inhibition at 4 µg/mL (All CPPA (n = 26); ATM 64 mg/L): 100%
- inhibition at 8 µg/mL (All CPPA (n = 26); ATM 0.5 mg/L): 4%
- inhibition at 8 µg/mL (All CPPA (n = 26); ATM 1 mg/L): 19%
- inhibition at 8 µg/mL (All CPPA (n = 26); ATM 2 mg/L): 38%
- inhibition at 8 µg/mL (All CPPA (n = 26); ATM 4 mg/L): 69%
- inhibition at 8 µg/mL (All CPPA (n = 26); ATM 8 mg/L): 88%
- inhibition at 8 µg/mL (All CPPA (n = 26); ATM 16 mg/L): 100%
- inhibition at 8 µg/mL (All CPPA (n = 26); ATM 32 mg/L): 100%
- inhibition at 8 µg/mL (All CPPA (n = 26); ATM 64 mg/L): 100%
- inhibition at 16 µg/mL (All CPPA (n = 26); ATM 0.5 mg/L): 4%
- inhibition at 16 µg/mL (All CPPA (n = 26); ATM 1 mg/L): 27%
- inhibition at 16 µg/mL (All CPPA (n = 26); ATM 2 mg/L): 50%
- inhibition at 16 µg/mL (All CPPA (n = 26); ATM 4 mg/L): 81%
- inhibition at 16 µg/mL (All CPPA (n = 26); ATM 8 mg/L): 96%
- inhibition at 16 µg/mL (All CPPA (n = 26); ATM 16 mg/L): 100%
- inhibition at 16 µg/mL (All CPPA (n = 26); ATM 32 mg/L): 100%
- inhibition at 16 µg/mL (All CPPA (n = 26); ATM 64 mg/L): 100%
- inhibition at 32 µg/mL (All CPPA (n = 26); ATM 0.5 mg/L): 4%
- inhibition at 32 µg/mL (All CPPA (n = 26); ATM 1 mg/L): 35%
- inhibition at 32 µg/mL (All CPPA (n = 26); ATM 2 mg/L): 54%
- inhibition at 32 µg/mL (All CPPA (n = 26); ATM 4 mg/L): 88%
- inhibition at 32 µg/mL (All CPPA (n = 26); ATM 8 mg/L): 96%
- inhibition at 32 µg/mL (All CPPA (n = 26); ATM 16 mg/L): 100%
- inhibition at 32 µg/mL (All CPPA (n = 26); ATM 32 mg/L): 100%
- inhibition at 32 µg/mL (All CPPA (n = 26); ATM 64 mg/L): 100%
- inhibition at 64 µg/mL (All CPPA (n = 26); ATM 0.5 mg/L): 4%
- inhibition at 64 µg/mL (All CPPA (n = 26); ATM 1 mg/L): 38%
- inhibition at 64 µg/mL (All CPPA (n = 26); ATM 2 mg/L): 58%
- inhibition at 64 µg/mL (All CPPA (n = 26); ATM 4 mg/L): 92%
- inhibition at 64 µg/mL (All CPPA (n = 26); ATM 8 mg/L): 96%
- inhibition at 64 µg/mL (All CPPA (n = 26); ATM 16 mg/L): 100%
- inhibition at 64 µg/mL (All CPPA (n = 26); ATM 32 mg/L): 100%
- inhibition at 64 µg/mL (All CPPA (n = 26); ATM 64 mg/L): 100%
- MIC50 (All CPPA (n = 26); read-out: MIC50 of ATM, 5 at 1 mg/L): 16 µg/mL (≈ 35.7 µM)
- MIC50 (All CPPA (n = 26); read-out: MIC50 of ATM, 5 at 2 mg/L): 16 µg/mL (≈ 35.7 µM)
- MIC50 (All CPPA (n = 26); read-out: MIC50 of ATM, 5 at 4 mg/L): 8 µg/mL (≈ 17.8 µM)
- MIC50 (All CPPA (n = 26); read-out: MIC50 of ATM, 5 at 8 mg/L): 4 µg/mL (≈ 8.92 µM)
- MIC50 (All CPPA (n = 26); read-out: MIC50 of ATM, 5 at 16 mg/L): 4 µg/mL (≈ 8.92 µM)
- MIC50 (All CPPA (n = 26); read-out: MIC50 of ATM, 5 at 32 mg/L): 2 µg/mL (≈ 4.46 µM)
- MIC50 (All CPPA (n = 26); read-out: MIC50 of ATM, 5 at 64 mg/L): 2 µg/mL (≈ 4.46 µM)
- MIC90 (All CPPA (n = 26); read-out: MIC90 of ATM, 5 at 1 mg/L): 32 µg/mL (≈ 71.4 µM)
- MIC90 (All CPPA (n = 26); read-out: MIC90 of ATM, 5 at 2 mg/L): 32 µg/mL (≈ 71.4 µM)
- MIC90 (All CPPA (n = 26); read-out: MIC90 of ATM, 5 at 4 mg/L): 16 µg/mL (≈ 35.7 µM)
- MIC90 (All CPPA (n = 26); read-out: MIC90 of ATM, 5 at 8 mg/L): 16 µg/mL (≈ 35.7 µM)
- MIC90 (All CPPA (n = 26); read-out: MIC90 of ATM, 5 at 16 mg/L): 8 µg/mL (≈ 17.8 µM)
- MIC90 (All CPPA (n = 26); read-out: MIC90 of ATM, 5 at 32 mg/L): 8 µg/mL (≈ 17.8 µM)
- MIC90 (All CPPA (n = 26); read-out: MIC90 of ATM, 5 at 64 mg/L): 8 µg/mL (≈ 17.8 µM)
- Activity (FICI class) (PA-029, blaIMP; PA-029): S (S (Synergy, FICI ≤ 0.5))
- Concentrations of ATM and 5 at lowest FICI (ATM/5) (PA-029, blaIMP; PA-029): 8/16
- Lowest FICI (ATM/5) (PA-029, blaIMP; PA-029): 0.28
- Minimum concentration of 5 to make sensitive to ATM (PA-029, blaIMP; PA-029): 16 mg/L
- Susceptibility to ATM (PA-029, blaIMP; PA-029, ATM/5): S (S (sensitive, MIC ≤ 8 mg/L))
- FD (fold decrease in MIC of ATM with 5) (PA-029, blaIMP; PA-029, lowest-FICI combination): 4
- MIC (PA-029, blaIMP; 5 at 1 mg/L): 32 µg/mL
- MIC (PA-029, blaIMP; 5 at 2 mg/L): 32 µg/mL
- MIC (PA-029, blaIMP; 5 at 4 mg/L): 16 µg/mL
- MIC (PA-029, blaIMP; 5 at 8 mg/L): 16 µg/mL
- MIC (PA-029, blaIMP; 5 at 16 mg/L): 8 µg/mL
- MIC (PA-029, blaIMP; 5 at 32 mg/L): 8 µg/mL
- MIC (PA-029, blaIMP; 5 at 64 mg/L): 8 µg/mL
- Activity (FICI class) (PA-031, blaNDM): S (S (Synergy, FICI ≤ 0.5))
- Concentrations of ATM and 5 at lowest FICI (ATM/5) (PA-031, blaNDM): 1/8
- Lowest FICI (ATM/5) (PA-031, blaNDM): 0.27
